Key:
Assay in all cases: KINOMEscan competition binding
Details in all cases: compound 10.0 µM
MAPK1 (human) = MAPK1 (human) (UniProt P28482)
NEK4 (human) = NEK4 (human) (UniProt P51957)
ERBB4 (human) = ERBB4 (human) (UniProt Q15303)
SRPK3 (human) = SRPK3 (human) (UniProt Q9UPE1)
RAF1 (human) = RAF1 (human) (UniProt P04049)
PKMYT1 (human) = PKMYT1 (human) (UniProt Q99640)
DMPK (human) = DMPK (human) (UniProt Q09013)
SRC (human) = SRC (human) (UniProt P12931)
ABL2 (human) = ABL2 (human) (UniProt P42684)
GSK3A (human) = GSK3A (human) (UniProt P49840)
[1] = test system: RET (human), P07949 [V804L]
CDK14 (human) = CDK14 (human) (UniProt O94921)
DYRK1B (human) = DYRK1B (human) (UniProt Q9Y463)
MYLK3 (human) = MYLK3 (human) (UniProt Q32MK0)
ULK2 (human) = ULK2 (human) (UniProt Q8IYT8)
MELK (human) = MELK (human) (UniProt Q14680)
WEE2 (human) = WEE2 (human) (UniProt P0C1S8)
BMPR1B (human) = BMPR1B (human) (UniProt O00238)
MAP4K5 (human) = MAP4K5 (human) (UniProt Q9Y4K4)
AXL (human) = AXL (human) (UniProt P30530)
CSNK1E (human) = CSNK1E (human) (UniProt P49674)
AKT1 (human) = AKT1 (human) (UniProt P31749)
TNIK (human) = TNIK (human) (UniProt Q9UKE5)
MAP2K6 (human) = MAP2K6 (human) (UniProt P52564)
CAMK2A (human) = CAMK2A (human) (UniProt Q9UQM7)
FGFR1 (human) = FGFR1 (human) (UniProt P11362)
CDC2L2 (human) = CDC2L2 (human) (UniProt Q9UQ88)
CLK3 (human) = CLK3 (human) (UniProt P49761)
RIPK4 (human) = RIPK4 (human) (UniProt P57078)
STK24 (human) = STK24 (human) (UniProt Q9Y6E0)
EPHB4 (human) = EPHB4 (human) (UniProt P54760)
DSTYK (human) = DSTYK (human) (UniProt Q6XUX3)
EPHB1 (human) = EPHB1 (human) (UniProt P54762)
STK11 (human) = STK11 (human) (UniProt Q15831)
PIK3C2G (human) = PIK3C2G (human) (UniProt O75747)
ACVR2A (human) = ACVR2A (human) (UniProt P27037)
NIM1 (human) = NIM1 (human) (UniProt Q8IY84)
PAK1 (human) = PAK1 (human) (UniProt Q13153)
PAK3 (human) = PAK3 (human) (UniProt O75914)
STK25 (human) = STK25 (human) (UniProt O00506)
AKT3 (human) = AKT3 (human) (UniProt Q9Y243)

Chain of SRPK3 (human) (Q9UPE1 whole entry, looked up): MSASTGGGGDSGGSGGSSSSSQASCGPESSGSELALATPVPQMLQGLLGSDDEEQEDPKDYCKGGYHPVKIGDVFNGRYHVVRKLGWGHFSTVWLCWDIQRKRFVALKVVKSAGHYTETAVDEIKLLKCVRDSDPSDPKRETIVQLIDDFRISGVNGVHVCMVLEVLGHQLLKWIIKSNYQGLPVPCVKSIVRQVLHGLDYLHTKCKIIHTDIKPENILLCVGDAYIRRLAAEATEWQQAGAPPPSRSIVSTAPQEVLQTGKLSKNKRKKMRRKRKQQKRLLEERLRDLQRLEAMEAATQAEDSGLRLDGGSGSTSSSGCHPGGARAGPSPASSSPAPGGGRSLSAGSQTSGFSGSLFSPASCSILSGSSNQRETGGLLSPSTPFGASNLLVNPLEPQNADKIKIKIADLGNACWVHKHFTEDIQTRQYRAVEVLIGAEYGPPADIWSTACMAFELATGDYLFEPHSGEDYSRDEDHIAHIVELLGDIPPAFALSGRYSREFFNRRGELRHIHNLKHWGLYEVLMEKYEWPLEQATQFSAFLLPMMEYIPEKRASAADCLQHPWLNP
Chain of RAF1 (human) (P04049 whole entry, looked up): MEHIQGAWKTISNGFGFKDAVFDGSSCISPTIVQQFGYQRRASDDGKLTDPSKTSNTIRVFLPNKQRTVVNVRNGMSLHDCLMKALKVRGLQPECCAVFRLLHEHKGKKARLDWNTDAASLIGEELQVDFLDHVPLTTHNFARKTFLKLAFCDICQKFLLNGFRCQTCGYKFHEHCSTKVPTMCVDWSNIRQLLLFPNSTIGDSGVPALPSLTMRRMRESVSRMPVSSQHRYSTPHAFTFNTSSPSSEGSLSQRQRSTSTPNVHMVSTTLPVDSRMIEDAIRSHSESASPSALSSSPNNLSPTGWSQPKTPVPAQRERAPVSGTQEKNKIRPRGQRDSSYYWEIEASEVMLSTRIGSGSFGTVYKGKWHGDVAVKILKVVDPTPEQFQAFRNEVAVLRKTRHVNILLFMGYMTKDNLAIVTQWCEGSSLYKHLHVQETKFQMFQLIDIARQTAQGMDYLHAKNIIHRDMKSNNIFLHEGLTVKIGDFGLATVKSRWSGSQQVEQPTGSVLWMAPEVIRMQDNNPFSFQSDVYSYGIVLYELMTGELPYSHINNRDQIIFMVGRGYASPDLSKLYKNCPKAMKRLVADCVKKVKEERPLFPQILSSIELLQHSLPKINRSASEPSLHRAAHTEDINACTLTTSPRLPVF
Chain of CDK14 (human) (O94921 whole entry, looked up): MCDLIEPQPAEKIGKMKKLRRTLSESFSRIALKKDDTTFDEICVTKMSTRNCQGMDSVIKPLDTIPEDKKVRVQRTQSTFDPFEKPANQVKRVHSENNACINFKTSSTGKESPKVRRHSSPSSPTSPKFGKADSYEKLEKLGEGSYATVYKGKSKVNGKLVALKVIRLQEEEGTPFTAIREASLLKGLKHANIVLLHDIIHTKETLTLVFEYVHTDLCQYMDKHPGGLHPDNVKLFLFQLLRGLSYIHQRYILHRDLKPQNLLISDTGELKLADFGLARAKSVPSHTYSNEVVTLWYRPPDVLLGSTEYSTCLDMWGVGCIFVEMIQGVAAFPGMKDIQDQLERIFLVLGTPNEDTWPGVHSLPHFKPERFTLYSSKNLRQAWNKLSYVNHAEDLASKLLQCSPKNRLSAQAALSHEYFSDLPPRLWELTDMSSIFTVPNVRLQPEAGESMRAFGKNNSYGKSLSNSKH
Chain of PAK3 (human) (O75914 whole entry, looked up): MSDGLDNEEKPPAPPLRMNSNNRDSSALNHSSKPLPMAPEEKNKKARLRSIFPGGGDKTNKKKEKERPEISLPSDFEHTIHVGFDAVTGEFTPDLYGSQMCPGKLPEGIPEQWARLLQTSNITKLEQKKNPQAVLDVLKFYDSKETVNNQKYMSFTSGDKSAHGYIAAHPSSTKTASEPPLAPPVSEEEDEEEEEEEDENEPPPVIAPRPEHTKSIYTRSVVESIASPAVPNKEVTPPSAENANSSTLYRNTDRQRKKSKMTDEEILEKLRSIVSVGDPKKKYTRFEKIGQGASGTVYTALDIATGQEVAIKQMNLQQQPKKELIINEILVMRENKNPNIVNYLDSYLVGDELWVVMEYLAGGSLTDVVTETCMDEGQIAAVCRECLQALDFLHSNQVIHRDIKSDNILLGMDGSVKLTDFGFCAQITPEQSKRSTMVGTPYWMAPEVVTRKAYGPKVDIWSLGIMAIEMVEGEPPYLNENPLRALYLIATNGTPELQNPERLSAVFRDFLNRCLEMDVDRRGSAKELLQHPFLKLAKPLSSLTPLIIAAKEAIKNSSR
Chain of ACVR2A (human) (P27037 whole entry, looked up): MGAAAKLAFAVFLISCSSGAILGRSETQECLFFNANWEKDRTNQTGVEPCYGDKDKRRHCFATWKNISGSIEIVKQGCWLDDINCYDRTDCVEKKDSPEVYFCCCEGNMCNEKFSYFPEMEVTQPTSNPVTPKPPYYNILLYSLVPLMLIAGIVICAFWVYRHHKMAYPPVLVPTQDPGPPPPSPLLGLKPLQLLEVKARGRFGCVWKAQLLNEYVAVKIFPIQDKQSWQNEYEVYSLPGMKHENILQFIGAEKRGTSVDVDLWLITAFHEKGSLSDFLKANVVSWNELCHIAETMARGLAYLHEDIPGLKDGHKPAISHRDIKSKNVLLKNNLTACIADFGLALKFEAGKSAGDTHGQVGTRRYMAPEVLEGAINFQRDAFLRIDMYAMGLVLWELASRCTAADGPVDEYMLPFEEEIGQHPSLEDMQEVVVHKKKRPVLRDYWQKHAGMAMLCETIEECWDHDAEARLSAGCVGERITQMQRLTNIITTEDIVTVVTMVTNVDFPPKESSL
Chain of PAK1 (human) (Q13153 whole entry, looked up): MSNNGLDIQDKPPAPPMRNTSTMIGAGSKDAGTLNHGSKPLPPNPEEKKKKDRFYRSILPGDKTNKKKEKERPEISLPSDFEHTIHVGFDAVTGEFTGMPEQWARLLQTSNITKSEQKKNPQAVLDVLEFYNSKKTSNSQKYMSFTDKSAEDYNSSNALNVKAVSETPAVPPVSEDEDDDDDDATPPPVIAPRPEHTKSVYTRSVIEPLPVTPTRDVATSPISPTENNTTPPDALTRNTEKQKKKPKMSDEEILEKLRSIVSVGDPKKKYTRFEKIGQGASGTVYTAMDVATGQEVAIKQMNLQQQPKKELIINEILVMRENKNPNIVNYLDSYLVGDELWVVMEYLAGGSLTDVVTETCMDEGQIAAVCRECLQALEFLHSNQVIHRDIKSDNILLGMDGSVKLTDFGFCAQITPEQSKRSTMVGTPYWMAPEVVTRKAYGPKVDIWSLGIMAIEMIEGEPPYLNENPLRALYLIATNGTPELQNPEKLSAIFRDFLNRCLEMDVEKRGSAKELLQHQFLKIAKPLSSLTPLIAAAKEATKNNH
Chain of BMPR1B (human) (O00238 whole entry, looked up): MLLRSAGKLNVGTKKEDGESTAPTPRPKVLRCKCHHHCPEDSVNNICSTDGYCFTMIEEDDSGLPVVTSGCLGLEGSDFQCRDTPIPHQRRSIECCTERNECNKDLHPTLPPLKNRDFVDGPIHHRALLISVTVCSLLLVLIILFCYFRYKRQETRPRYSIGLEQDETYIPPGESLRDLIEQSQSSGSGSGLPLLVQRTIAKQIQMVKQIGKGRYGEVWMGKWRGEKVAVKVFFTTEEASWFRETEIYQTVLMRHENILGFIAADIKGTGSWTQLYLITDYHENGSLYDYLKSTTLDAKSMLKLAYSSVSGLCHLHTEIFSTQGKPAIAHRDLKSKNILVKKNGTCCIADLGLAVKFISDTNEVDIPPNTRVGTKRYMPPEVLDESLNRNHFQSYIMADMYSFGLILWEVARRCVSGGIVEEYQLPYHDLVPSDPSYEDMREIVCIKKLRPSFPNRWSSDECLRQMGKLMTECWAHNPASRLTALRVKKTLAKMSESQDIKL
Chain of CAMK2A (human) (Q9UQM7 whole entry, looked up): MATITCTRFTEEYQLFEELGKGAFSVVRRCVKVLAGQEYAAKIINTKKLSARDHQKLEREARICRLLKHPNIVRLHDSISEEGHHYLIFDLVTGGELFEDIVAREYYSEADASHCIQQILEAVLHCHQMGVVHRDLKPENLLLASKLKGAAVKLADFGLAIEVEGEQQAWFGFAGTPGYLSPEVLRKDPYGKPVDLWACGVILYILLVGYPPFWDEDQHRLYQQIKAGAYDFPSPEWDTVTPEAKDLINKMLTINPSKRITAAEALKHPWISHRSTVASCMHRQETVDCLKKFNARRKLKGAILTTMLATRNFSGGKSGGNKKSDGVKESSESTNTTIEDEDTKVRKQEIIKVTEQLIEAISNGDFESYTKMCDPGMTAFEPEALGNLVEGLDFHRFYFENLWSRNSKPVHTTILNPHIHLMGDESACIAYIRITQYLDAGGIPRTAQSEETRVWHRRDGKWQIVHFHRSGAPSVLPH
Chain of GSK3A (human) (P49840 whole entry, looked up): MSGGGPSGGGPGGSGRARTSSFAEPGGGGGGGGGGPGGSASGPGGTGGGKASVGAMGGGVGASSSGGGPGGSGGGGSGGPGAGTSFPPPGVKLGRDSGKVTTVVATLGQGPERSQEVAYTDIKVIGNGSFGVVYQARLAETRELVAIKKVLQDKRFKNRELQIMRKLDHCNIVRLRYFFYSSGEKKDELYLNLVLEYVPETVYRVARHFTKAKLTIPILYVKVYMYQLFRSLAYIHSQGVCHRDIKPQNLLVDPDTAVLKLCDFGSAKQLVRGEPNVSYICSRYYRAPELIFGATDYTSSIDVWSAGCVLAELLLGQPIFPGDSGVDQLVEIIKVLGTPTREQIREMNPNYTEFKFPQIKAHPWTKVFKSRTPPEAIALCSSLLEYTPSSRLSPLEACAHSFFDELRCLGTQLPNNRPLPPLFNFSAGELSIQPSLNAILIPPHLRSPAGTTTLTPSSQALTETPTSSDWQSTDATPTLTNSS

SMILES	kinase still bound, per cent of control (MAPK1 (human)) [%]	kinase still bound, per cent of control (NEK4 (human)) [%]	kinase still bound, per cent of control (ERBB4 (human)) [%]	kinase still bound, per cent of control (SRPK3 (human)) [%]	kinase still bound, per cent of control (RAF1 (human)) [%]	kinase still bound, per cent of control (PKMYT1 (human)) [%]	kinase still bound, per cent of control (DMPK (human)) [%]	kinase still bound, per cent of control (SRC (human)) [%]	kinase still bound, per cent of control (ABL2 (human)) [%]	kinase still bound, per cent of control (GSK3A (human)) [%]	kinase still bound, per cent of control [1] [%]	kinase still bound, per cent of control (CDK14 (human)) [%]	kinase still bound, per cent of control (DYRK1B (human)) [%]	kinase still bound, per cent of control (MYLK3 (human)) [%]	kinase still bound, per cent of control (ULK2 (human)) [%]	kinase still bound, per cent of control (WEE2 (human)) [%]	kinase still bound, per cent of control (BMPR1B (human)) [%]	kinase still bound, per cent of control (AXL (human)) [%]	kinase still bound, per cent of control (CSNK1E (human)) [%]	kinase still bound, per cent of control (AKT1 (human)) [%]	other results
COc1cc2ncnc(Nc3cccc(Cl)c3)c2cc1OC	100	76	3.5	93	84	78	79	9.9	34	84	100	88	70	76	87	81	62	19	32	100	kinase still bound, per cent of control (MELK (human)): 74%; kinase still bound, per cent of control (MAP4K5 (human)): 26%; kinase still bound, per cent of control (TNIK (human)): 26%; kinase still bound, per cent of control (MAP2K6 (human)): 95%; kinase still bound, per cent of control (CAMK2A (human)): 62%; kinase still bound, per cent of control (FGFR1 (human)): 87%; kinase still bound, per cent of control (CDC2L2 (human)): 77%; kinase still bound, per cent of control (CLK3 (human)): 100%; kinase still bound, per cent of control (RIPK4 (human)): 43%; kinase still bound, per cent of control (STK24 (human)): 87%; kinase still bound, per cent of control (EPHB4 (human)): 38%; kinase still bound, per cent of control (DSTYK (human)): 43%; kinase still bound, per cent of control (EPHB1 (human)): 67%; kinase still bound, per cent of control (STK11 (human)): 86%; kinase still bound, per cent of control (PIK3C2G (human)): 43%; kinase still bound, per cent of control (ACVR2A (human)): 92%; kinase still bound, per cent of control (NIM1 (human)): 77%; kinase still bound, per cent of control (PAK1 (human)): 85%; kinase still bound, per cent of control (PAK3 (human)): 25%; kinase still bound, per cent of control (STK25 (human)): 77%
CCc1nc(-c2cccc(C)c2)c(-c2ccnc(NC(=O)c3ccccc3)c2)s1	96	100	2.8	100	34	64	92	14	47	100	99	99	90	93	100	100	100	80	0.05	100	kinase still bound, per cent of control (AKT3 (human)): 95%; kinase still bound, per cent of control (TNIK (human)): 5.5%; kinase still bound, per cent of control (MAP2K6 (human)): 79%; kinase still bound, per cent of control (CAMK2A (human)): 89%; kinase still bound, per cent of control (FGFR1 (human)): 72%; kinase still bound, per cent of control (CDC2L2 (human)): 90%; kinase still bound, per cent of control (CLK3 (human)): 78%; kinase still bound, per cent of control (RIPK4 (human)): 90%; kinase still bound, per cent of control (STK24 (human)): 69%; kinase still bound, per cent of control (EPHB4 (human)): 53%; kinase still bound, per cent of control (DSTYK (human)): 100%; kinase still bound, per cent of control (EPHB1 (human)): 83%; kinase still bound, per cent of control (STK11 (human)): 96%; kinase still bound, per cent of control (PIK3C2G (human)): 40%; kinase still bound, per cent of control (ACVR2A (human)): 70%; kinase still bound, per cent of control (NIM1 (human)): 100%; kinase still bound, per cent of control (PAK1 (human)): 76%; kinase still bound, per cent of control (PAK3 (human)): 82%; kinase still bound, per cent of control (STK25 (human)): 84%
